# In patent publication US9440950B2, “Arginine methyltransferase inhibitors and uses thereof” (Epizyme, Inc., priority 2013, dated 2016):
# Target: T1, human PRMT6 (Homo sapiens, UniProt Q96LA8)
# T1 construct: Flag-PRMT6-His; made in house; host or cells: HEK 293F cells (BacMam virus, pFastBacMam)
# Experiment: PRMT6 Biochemical Assay
# Details: peptide substrate, 3H-SAM Flashplate assay
# Source text: S-adenosylmethionine (SAM), S-adenosylhomocysteine (SAH), bicine, Tween20, dimethylsulfoxide (DMSO), bovine skin gelatin (BSG), sodium butyrate and Tris(2-carboxyethyl)phosphine hydrochloride solution (TCEP) were purchased from Sigma-Aldrich at the highest level of purity possible. ^3H-SAM was purchase from American Radiolabeled Chemicals with a specific activity of 80 Ci/mmol. 384-well streptavidin Flashplates were purchased from PerkinElmer.
# Peptide representative of human histone H4 residues 36-50 was synthesized with an N-terminal linker-affinity tag motif and a C-terminal amide cap by 21st Century Biochemicals. The peptide was purified by high-performance liquid chromatography (HPLC) to greater than 95% purity and confirmed by liquid chromatography mass spectrometry (LC-MS). The sequence was Biot-Ahx-[…]-amide and contained a monomethylated lysine at position 44 (SEQ ID NO.:5).
# Full-length human PRMT6 (NM_018137.2) transcript clone was amplified from an HEK 293 cDNA library, incorporating a flanking 5′ sequence encoding a FLAG tag ([…]) (SEQ ID NO.:6) fused directly to Ser 2 of PRMT6 and a 3′ sequence encoding a hexa His sequence (HHHHHH) fused directly to Asp 375. The amplified gene was subcloned into pFastBacMam (Viva Biotech).
# Recombinant baculovirus were generated according to Bac-to-Bac kit instructions (Life Technologies). […] Infections were carried out at 37° C. for 48 hours, harvested by centrifugation, and stored at −80° C. for purification.
# Column was washed with 20 mM imidazole in the same buffer and Flag-PRMT6-His was eluted with 150 mM imidazole. Pooled fractions were dialysed against buffer Ni-A and further purified by anti-flag M2 affinity chromatography. Flag-PRMT6-His was eluted with 200 ug/ml FLAG peptide in the same buffer. Pooled fractions were dialysed in 20 mM Tris, 150 mM NaCl, 10% glycerol and 5 mM β-mercaptoethanol, pH 7.8. The purity of recovered protein was 95%.
# General Procedure for PRMT6 Enzyme Assays on Peptide Substrates.
# The assays were all performed in a buffer consisting of 20 mM Bicine (pH=7.6), 1 mM TCEP, 0.005% BSG, and 0.002% Tween 20, prepared on the day of use. Compounds in 100% DMSO (1 ul) were spotted into a polypropylene 384-well V-bottom plates (Greiner) using a Platemate Plus outfitted with a 384-channel head (Thermo Scientific). DMSO (1 ul) was added to Columns 11, 12, 23, 24, rows A-H for the maximum signal control and 1 ul of SAH, a known product and inhibitor of PRMT6, was added to columns 11, 12, 23, 24, rows I-P for the minimum signal control. A cocktail (40 ul) containing the PRMT6 enzyme was added by Multidrop Combi (Thermo-Fisher). The compounds were allowed to incubate with PRMT6 for 30 min at room temperature, then a cocktail (10 ul) containing SAM and peptide was added to initiate the reaction (final volume=51 ul). The final concentrations of the components were as follows: PRMT6 was 1 nM, ^3H-SAM was 200 nM, non-radiolabeled SAM was 250 nM, peptide was 75 nM, SAH in the minimum signal control wells was 1 mM, and the DMSO concentration was 2%. The assays were stopped by the addition of non-radiolabeled SAM (10 ul) to a final concentration of 400 uM, which dilutes the ^3H-SAM to a level where its incorporation into the peptide substrate is no longer detectable. 50 ul of the reaction in the 384-well polypropylene plate was then transferred to a 384-well Flashplate and the biotinylated peptides were allowed to bind to the streptavidin surface for at least 1 hour before being washed once with 0.1% Tween20 in a Biotek ELx405 plate washer. The plates were then read in a PerkinElmer TopCount plate reader to measure the quantity of ^3H-labeled peptide bound to the Flashplate surface, measured as disintegrations per minute (dpm) or alternatively, referred to as counts per minute (cpm).
# Where dpm=disintegrations per minute, cmpd=signal in assay well, and min and max are the respective minimum and maximum signal controls. […]
# T1 sequence (Q96LA8 with tags, fused parts or gaps): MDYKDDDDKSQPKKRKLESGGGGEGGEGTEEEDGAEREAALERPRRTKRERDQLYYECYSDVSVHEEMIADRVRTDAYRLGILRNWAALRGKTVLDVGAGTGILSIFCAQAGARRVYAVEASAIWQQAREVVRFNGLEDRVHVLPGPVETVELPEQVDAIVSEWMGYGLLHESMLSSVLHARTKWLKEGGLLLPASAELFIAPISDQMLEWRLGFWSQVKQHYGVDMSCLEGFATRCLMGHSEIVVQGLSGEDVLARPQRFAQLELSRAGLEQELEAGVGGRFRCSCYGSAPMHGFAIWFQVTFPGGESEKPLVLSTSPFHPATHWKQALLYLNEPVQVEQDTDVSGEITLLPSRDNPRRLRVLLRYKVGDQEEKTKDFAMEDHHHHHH
row,SMILES,IC50 [nM]
1,CNCCN(C)Cc1c[nH]nc1-c1cccnc1 [Compound 1],≤ 100
2,CNCCN(C)Cc1c[nH]nc1-c1ccc(O)nc1 [Compound 2],1010 to 3000
3,CNCCN(C)Cc1c[nH]nc1-c1ccc(N)nc1 [Compound 3],≤ 100
4,CN(CCN)Cc1c[nH]nc1-c1cncc(S(C)(=O)=O)c1 [Compound 4],1010 to 3000
5,COc1ccc(-c2n[nH]cc2CN(C)CCN)cn1 [Compound 5],≤ 100
6,Cc1cncc(-c2n[nH]cc2CN(C)CCN)c1 [Compound 6],3010 to 10000
7,CN(CCN)Cc1c[nH]nc1-c1cncc(F)c1 [Compound 7],≤ 100
8,CN(CCN)Cc1c[nH]nc1-c1cccnc1 [Compound 8],≤ 100
9,CN(CCN)Cc1c[nH]nc1-c1ccncc1 [Compound 9],≤ 100
10,Cc1cc(-c2n[nH]cc2CN(C)CCN)cnc1Cl [Compound 10],≤ 100
11,COc1cc(-c2n[nH]cc2CN(C)CCN)ccn1 [Compound 11],≤ 100
12,COc1cc(-c2n[nH]cc2CN(C)CCN)c(Cl)cn1 [Compound 12],101 to 1000
13,"CN(CCN)Cc1c[nH]nc1-c1ccc(C(F)(F)F)nc1 [Compound 13, N^1-methyl-N^1-((3-(6-(trifluoromethyl)pyridin-3-yl)-1H-pyrazol-4-yl)methyl)ethane-1,2-diamine]",≤ 100
14,COc1ncc(Cl)cc1-c1n[nH]cc1CN(C)CCN [Compound 14],1010 to 3000
15,COc1ncccc1-c1n[nH]cc1CN(C)CCN [Compound 15],101 to 1000
16,COc1ccncc1-c1n[nH]cc1CN(C)CCN [Compound 16],101 to 1000
17,Cc1ccncc1-c1n[nH]cc1CN(C)CCN [Compound 17],101 to 1000
18,CN(CCN)Cc1c[nH]nc1-c1cncc(C#N)c1 [Compound 18],101 to 1000

row,SMILES,IC50 [nM]
1,CN(CCN)Cc1c[nH]nc1-c1cncc(Cl)c1 [Compound 19],≤ 100
2,CN(CCN)Cc1c[nH]nc1-c1ccc(N2CCOCC2)nc1 [Compound 20],101 to 1000
3,CC(C)CN(C)c1ccc(-c2n[nH]cc2CN(C)CCN)cn1 [Compound 21],101 to 1000
4,CC(C)Oc1ccc(-c2n[nH]cc2CN(C)CCN)cn1 [Compound 22],≤ 100
5,CN(CCN)Cc1c[nH]nc1-c1ccc(N(C)Cc2ccccc2)nc1 [Compound 23],≤ 100
6,CCN(CC)c1ccc(-c2n[nH]cc2CN(C)CCN)cn1 [Compound 24],101 to 1000
7,CN(CCN)Cc1c[nH]nc1-c1ccc(NCc2ccccc2)nc1 [Compound 25],≤ 100
8,CC(C)CNc1ccc(-c2n[nH]cc2CN(C)CCN)cn1 [Compound 26],≤ 100
9,CN(CCN)Cc1c[nH]nc1-c1ccccn1 [Compound 27],3010 to 10000
10,"CN(CCN)Cc1c[nH]nc1-c1ccc(C#N)nc1 [Compound 28, 5-(4-(((2-aminoethyl)(methyl)amino)methyl)-1H-pyrazol-3-yl)picolinonitrile]",≤ 100
11,CN(CCN)Cc1c[nH]nc1-c1cnccc1C(F)(F)F [Compound 29],101 to 1000
12,CNCCN(C)Cc1c[nH]nc1-c1ccc(N(C)CCC(C)C)nc1 [Compound 30],≤ 100
13,CNCCN(C)Cc1c[nH]nc1-c1ccc(N(CC(C)C)CC(C)C)nc1 [Compound 31],1010 to 3000
14,"CNCCN(C)Cc1c[nH]nc1-c1ccc(N(C)CC(C)C)nc1 [Compound 32, N^1-((3-(6-(isobutyl(methyl)amino)pyridin-3-yl)-1H-pyrazol-4-yl)methyl)-N^1,N^2-dimethylethane-1,2-diamine]",101 to 1000
15,"CNCCN(C)Cc1c[nH]nc1-c1ccc(N(C)C(C)C)nc1 [Compound 33, N^1-((3-(6-(isopropyl(methyl)amino)pyridin-3-yl)-1H-pyrazol-4-yl)methyl)-N^1,N^2-dimethylethane-1,2-diamine]",101 to 1000
16,"CCN(CCC(C)C)c1ccc(-c2n[nH]cc2CN(C)CCNC)cn1 [Compound 34, N^1-((3-(6-(ethyl(isopentyl)amino)pyridin-3-yl)-1H-pyrazol-4-yl)methyl)-N^1,N^2-dimethylethane-1,2-diamine]",101 to 1000
17,"CNCCN(C)Cc1c[nH]nc1-c1ccc(OCC(C)C)nc1 [Compound 35, N^1-((3-(6-iso-butoxypyridin-3-yl)-1H-pyrazol-4-yl)methyl)-N^1,N^2-dimethylethane-1,2-diamine]",≤ 100
18,CCN(CC(C)C)c1ccc(-c2n[nH]cc2CN(C)CCNC)cn1 [Compound 36],1010 to 3000
